On the set-up of data set [1]: method as in PMID 31459105. The following applies: cited from earlier work.
Details of data set [2]: method as in PMID 31459105. The conditions noted are these: cited from earlier work. The source holds these as a separate data set.
In data set [3] the test system is quiescent PBLs. The data set can be described thus: Cytotoxicity in human PBLs, resting. Format: cell-based. The conditions noted are these: PBL not stimulated with PHA, 72 h, read-out: IC50 PBLresting. An excerpt:
(§1) Human PBLs were obtained from healthy donors by separation on a Lymphoprep^TM (Serumwerk Bernburg AG) gradient and were used for the evaluation of the cytotoxic potential of compounds under study in normal human cells. Buffy coats were obtained from the Blood Transfusion Service, Azienda Ospedaliera of Padova and provided at this institution for research purposes without identifier. The samples were not obtained specifically for this study, and for this reason ethical approval was not required. Informed consent was obtained from blood donors according to Italian law no. 219 (21 October 2005). Data were treated by the Blood Transfusion Service according to Italian law on personal data management “Codice in materia di protezione dati personali” (Testo Unico D.L. Giugno 30, 2003 196).
(§2) After extensive washing with saline solution (BioConcept, Hank’s Buffered Saline Solution), quiescent PBLs were resuspended (1.0 × 10^6 cells/mL) in RPMI-1640 medium supplemented with 10% fetal bovine serum. Cytotoxicity evaluations were conducted also in cultures of proliferating PBLs, stimulated with […] PHA (Irvine Scientific). Both resting and proliferating lymphocytes were seeded in 96-well plates and maintained overnight at 37 °C in a humidified 5% CO2 incubator. Serial (5-fold) dilutions of the tested compounds were added, and viability was determined 72 h later by the resazurin viability assay as described above.

Data set [4] relates to PBL stimulated with PHA. Description: Cytotoxicity in human PBLs stimulated with PHA. Format: cell-based. The following applies: 72 h, read-out: IC50 PBLPHA.
From the text: as §1, §2

The test system of data set [5] is Bovine brain tubulin. The data set can be described thus: Inhibition of [3H]colchicine binding to tubulin. The conditions noted are these: tubulin 0.5 µM, [3H]colchicine 5 µM, compound 5 µM. How it is done:
(§3) Bovine brain tubulin was purified as described previously. To evaluate the effects of the compounds on tubulin assembly in vitro [35], varying concentrations were preincubated with 10 μM tubulin in 0.8 M monosodium glutamate (pH 6.6) at 30 °C and the reaction mixtures then cooled to 0 °C. After addition of GTP, the mixtures were transferred to 0 °C cuvettes in Beckman Coulter (Brea, CA, USA) DU-7400/DU-7500 recording spectrophotometers equipped with electronic temperature controllers and warmed to 30 °C, and the assembly of tubulin was observed turbidimetrically. […] Inhibition of colchicine binding to tubulin was measured as described before, except that the reaction mixtures contained 0.5 μM tubulin and 5 μM each of [^3H]colchicine and test compound. Only one DEAE-cellulose filter was used per sample, and filtration was by gravity.

The test system of data set [6] is Bovine brain tubulin. Description: Inhibition of tubulin polymerization. Format: biochemical. As to the method:
as §3

Data set [7] relates to Zebrafish embryos. Description: Acute toxicity assessment in zebrafish embryos. Format: in vivo, Danio rerio. The conditions noted are these: 100 nM. As to the method: Zebrafish embryos at 72 h post fertilization (hpf) were selected for the acute toxicity assay since, at that time, morphogenesis and function of the primary organ systems are complete. Embryos at 72 hpf were assayed in a 12-well plate, 20 larvae/well for each experimental condition.
The zebrafish embryos were treated as described in the Biological Results and Discussion section using drug concentrations selected on the basis of in vitro experimental data. The drugs were added directly to the fish water from 10 mM stock solutions in DMSO of tested compounds. […] CA-4P was employed as the reference compound.
The experiment was carried out at a constant temperature (28.5 °C) in the dark, and at 24 and 48 h time points, zebrafish were subjected to visual observation and image acquisition under a stereomicroscope (Nikon SMZ745T; Nikon, Japan). The number of dead zebrafish embryos for each condition was recorded, and morphological defects were evaluated. The survival rate (%) after treatment was calculated.

In data set [8] the test system is A549, MDA-MB-231, HeLa, HT-29 and Jurkat cancer cell lines. Description: Antiproliferative activity over the panel of cancer cell lines. Format: cell-based, human. In short, it runs like this: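 The highest dose is 10 μM, diluted in five-fold steps, and each condition is run in triplicate. HT-29 uses RPMI-1640 medium; MDA-MB-231, A549 and HeLa use DMEM.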
Data set [9] concerns MDA-MB-231. The data set can be described thus: Antiproliferative assay (resazurin, 72 h). Format: cell-based, human. The conditions noted are these: mean ± SE, 72 h. In short, it runs like this:
(§4)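 HT-29 cells were cultured in RPMI-1640, while MDA-MB-231, A549 and HeLa were cultured in DMEM, both with 10% FBS. Cells were treated 24 h after seeding with 5-fold serial dilutions starting at 10 μM, in triplicate, and incubated for 72 h at 37 °C. Resazurin fluorescence was read at ex 535/em 600 nm.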
Background: Alamar Blue is a resazurin reagent that responds to reducing activity.

For data set [10], the system named is Jurkat. Description: Antiproliferative assay (resazurin, 72 h). Format: cell-based, human. An outline of the steps: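 Compounds dissolved in DMSO as 10 mM stocks were applied to seeded Jurkat cells using 5-fold serial dilutions from 10 μM, with each condition run in triplicate. Following 72 h incubation, 10 μL of 100 μg/mL resazurin was added for 3–4 h, and fluorescence was measured at 535 nm excitation and 600 nm emission.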

Data set [11] deals with HeLa. Description: Antiproliferative assay (resazurin, 72 h). Format: cell-based, human. In short, it runs like this: as §4
For data set [12], the system named is HeLa cells. Description: ROS production (H2DCFDA). Format: cell-based, human. The following applies: 10, 50 or 100 nM; 24 h. How it is done:
(§5) The mitochondrial potential was evaluated in HeLa cells by flow cytometry using the cell membrane permeable cationic dye 5,5′,6,6′-tetrachloro-1,1′,3,3′-tetraethyl-imidacarbocyanine iodide (JC-1) (Molecular Probes) as described previously. The production of ROS was measured in HeLa cells by flow cytometry using 2′,7′-dichlorodihydrofluorescein diacetate (H2DCFDA) (Molecular Probes) as described previously.

In data set [13] the test system is HeLa cells. Description: Mitochondrial membrane potential (JC-1). Format: cell-based, human. The following applies: Figure 8A representative plot; concentration not given. How it is done: as §5
In data set [14] the test system is HeLa cells. Description: Cell cycle analysis (PI, flow cytometry). Format: cell-based, human. The following applies: 24 h; for cells arrested in the G2/M phase: 100 nM. As to the method: HeLa cells were seeded at 100,000 cells per well on 6-well tissue culture plates. After 24 h, cells were treated with different test compound concentrations or DMSO for another 24 h. Cells were then fixed and stained with propidium iodide (PI). The fluorescence intensity of 10,000 single-cell events was measured with a Beckman Coulter Cytomics FC500 instrument (Beckman Coulter Italia, Milano, Italy) and the data were analyzed with MultiCycle for Windows software from Phoenix Flow Systems (San Diego, CA, USA).

For data set [15], the system named is HeLa cells. Description: Apoptosis by annexin-V-FITC/PI flow cytometry. Format: cell-based, human. How it is done: Surface exposure of phosphatidylserine on apoptotic cells was measured by flow cytometry with a Beckman Coulter Cytomics FC500 (Beckman Coulter Italia, Milano, Italy) by adding annexin-V conjugated to fluorescein isothiocyanate (FITC) to cells according to the manufacturer’s instructions (Annexin-V Fluos, Roche Diagnostic, Monza, Italy). Simultaneously, the cells were stained with PI. Excitation was set at 488 nm, and the emission filters were at 525 and 585 nm, respectively, for FITC and PI.
On the technique in general: A flow cytometer gives signals particle by particle.

Data set [16] concerns HeLa cells. The data set can be described thus: EdU cell proliferation assay. Format: cell-based, human. The following applies: 25 or 50 nM; 24 h. How it is done: HeLa cells were seeded in a 6-well plate and, after a 24 h incubation, were treated with the desired compounds as indicated in the Biological Results and Discussion section. Cells were re-incubated for one day and then labeled with EdU (10 μM) for 3 h under cell culture conditions. Cells were harvested by centrifugation before proceeding with the fixation step using 3.7% formaldehyde. Next, permeabilization with 0.5% Triton X-100 was performed. The reaction cocktail was prepared and added to each well (100 μL/well) following the manufacturer’s instructions (EdU-Click 488, base click, Sigma-Aldrich. Milano Italy), and the plate was incubated at room temperature for 30 min in the dark. Cells were washed 2 times with phosphate-buffered saline (PBS) before reading samples with a Beckman Coulter Cytomics FC500 instrument (λex/λem = 496/516 nm).

In data set [17] the test system is HT-29. The data set can be described thus: Antiproliferative assay (resazurin, 72 h). Format: cell-based, human. In short, it runs like this:
as §4

Data set [18] has as its system A549. Description: Antiproliferative assay (resazurin, 72 h). Format: cell-based, human. In short, it runs like this:
as §4

Setting [19] is: tubulin at 10 μM, read-out: Tubulin Assembly IC50 ± SD.

Read-outs that look alike come from different tables or passages of the source.

On to `COc1ccc(/C=C\c2cc(OC)c(OC)c(OC)c2)cc1O` [CA-4, combretastatin A-4, reference compound], for which the biological half-life result in data set [1] is given as “short biological half-life”. The aqueous solubility entry in data set [2] was “very poor aqueous solubility”. Further, the IC50 in data set [3] (Homo sapiens) was more than 10000 nM; in data set [4] (Homo sapiens), 18.6 ± 3.8 nM; in data set [6] (setting [19]), […]; in data set [8] (Homo sapiens, against three of the five lines (not A549, HT-29), read-out: IC50's, range), 1 to 5 nM; in data set [9] (Homo sapiens, MDA-MB-231, Table 1), 5 ± 2 nM; in data set [10] (Homo sapiens, Jurkat, Table 1, mean ± SE, 72 h) it was 1 ± 0.2 nM. The compound further registered an IC50 in [11] (Homo sapiens, HeLa, Table 1, mean ± SE) of 4 ± 1 nM. Further, the “Colchicine Binding % Inhibition ± SD” value in data set [5] is listed as 97 ± 0.1%. Further, the “lethality” value in data set [7] was found to be 100%. Further, the “Results (toxicity evaluation)” value in [7] (72 hpf embryos) is listed as “Toxic”.

As to `COc1cc(Nc2cc(C)nc3nc(NCCCc4ccccc4)nn23)cc(OC)c1OC` [Compound 7ad], in [12], the ROS production result is reported as “significantly increased ROS production in a dose-dependent manner”. For the same compound, the IC50 in data set [3] is more than 10000 nM; in [4] it was more than 10000 nM; in [6] (setting [19]), 380 ± 60 nM; in data set [8] (four of the five cell lines, read-out: IC50 values against four of the five cell lines), less than 1000 nM; in data set [9] (Table 1), 91 ± 8 nM; in [17], 142 nM. The IC50 in [17] (Table 1, mean ± SE, 72 h) was 140 ± 11 nM; in data set [10] it was more than 2000 nM; in data set [10] (Table 1, mean ± SE, 72 h) it was 2720 ± 130 nM; in data set [11] (Table 1, mean ± SE), 67 ± 7 nM; in data set [18] (Table 1, mean ± SE), 190 ± 20 nM. For the same compound, the “Monomers (%) (monomeric JC-1)” value in data set [13] was found to be 33.4%. Besides, the “cells arrested in the G2/M phase” value in data set [14] is reported as “more than 70%”. For the same compound, the “concentration at which G2/M arrest began” value in [14] came out at 25 nM. In addition, the “Colchicine Binding % Inhibition ± SD” value in [5] is 55 ± 3%. In addition, the “concentration from which apoptosis was induced” value in data set [15] turned out to be 50 nM. Also, in [16], the “EdU incorporation / cell proliferation” value is given as “effective in reducing HeLa cell proliferation”.

For `Cc1cc(Nc2ccc(F)c(Cl)c2)n2nc(NCCCc3ccccc3)nc2n1` [Compound 8r, N^7-(3-Chloro-4-fluorophenyl)-5-methyl-N^2-(3-phenylpropyl)-[1,2,4]triazolo [1,5-a]pyrimidine-2,7-diamine], the melting point lay within 168 to 170 °C. Moreover, the ROS production result in data set [12] is given as “significantly increased ROS production in a dose-dependent manner”. In addition, the IC50 in data set [3] (Homo sapiens) is more than 10000 nM. The “Monomers (%) (monomeric JC-1)” value in data set [13] stood at 16.6%. The IC50 in data set [4] (Homo sapiens) is more than 10000 nM. Further, in data set [14], the “cells arrested in the G2/M phase” value is “more than 70%” and the “concentration at which G2/M arrest began” value came out at 25 nM. Also, the “Colchicine Binding % Inhibition ± SD” value in [5] came out at 87 ± 0.8%. The “fold more potent than CA-4, tubulin polymerization” value in data set [6] is “about 2 fold”. Also, the IC50 in data set [6] (read-out: IC50 tubulin polymerization) was 390 nM. In addition, the half-inhibitory concentration (IC50) in data set [6] (setting [19]) was 520 ± 60 nM. Moreover, the “concentration from which apoptosis was induced” value in data set [15] is recorded as 50 nM. Moreover, in data set [16], the “EdU incorporation / cell proliferation” value was “effective in reducing HeLa cell proliferation”. The IC50 in [8] (Homo sapiens, mean over the five cancer cell lines, read-out: mean IC50 (antiproliferative activity)) stood at 101 nM. In data set [9] (Homo sapiens, MDA-MB-231, Table 2), half-maximal inhibition (IC50) was put at 98 ± 20 nM. The same compound yielded an IC50 in [17] (Homo sapiens, HT-29, Table 2, mean ± SE, 72 h) of 58 ± 10 nM. The compound further had an IC50 in data set [10] (Homo sapiens, Jurkat, Table 2, mean ± SE, 72 h) of 230 ± 20 nM. This compound yielded an IC50 in data set [11] (Homo sapiens, HeLa, Table 2, mean ± SE) of 35 nM. The compound further had an IC50 in [18] (Homo sapiens, A549, Table 2, mean ± SE) of 81 ± 2 nM.

The IC50 is the point on the concentration scale where inhibition reaches its midpoint. Broadly, the melting point is the temperature of the solid-liquid transition.

These data come from article PMC9230136 (Pharmaceutics, 2022).
